Among the data in ChEMBL document CHEMBL4414679, “Discovery of 4,6-pyrimidinediamine derivatives as novel dual EGFR/FGFR inhibitors aimed EGFR/FGFR1-positive NSCLC” (Eur J Med Chem, 2020) are inhibition values, retold here.

For one test, the system named is HCC827. The test can be described thus: Antiproliferative activity against human HCC827 cells assessed as inhibition of cell growth at 10 uM incubated for 48 hrs by MTT assay relative to control. It counts as functional. Particulars: HCC827, 48 h. (Tetrazolium dyes change colour on reduction, which living cells bring about.)
For the next test, the system named is NCI-H520. The test can be described thus: Antiproliferative activity against human NCI-H520 cells assessed as inhibition of cell growth at 10 uM incubated for 48 hrs by MTT assay relative to control. Format: functional. The settings on record: NCI-H520, 48 h.
For the next test, the system named is NCI-H226. The test can be described thus: Antiproliferative activity against human NCI-H226 cells assessed as inhibition of cell growth at 10 uM incubated for 48 hrs by MTT assay relative to control. It counts as functional. The settings on record: NCI-H226, 48 h.
Test [1] addresses Fibroblast growth factor receptor 1 (Homo sapiens, UniProt P11362). As to the kind of experiment: Inhibition of N-terminal GST-tagged human FGFR1 cytoplasmic domain (398-822 AA) expressed in baculovirus at 10 uM using FAM-labelled peptide as substrate pre-incubated for 10 mins followed by substrate addition by mobility shift assay relative to control.
The next test has as its system PC-9. As to the kind of experiment: Antiproliferative activity against human PC9 cells assessed as inhibition of cell growth at 10 uM incubated for 48 hrs by MTT assay relative to control. It counts as functional. Particulars: PC-9, 48 h.
The test system of another test is NCI-H1581. The test can be described thus: Antiproliferative activity against human NCI-H1581 cells assessed as inhibition of cell growth at 10 uM incubated for 48 hrs by MTT assay relative to control. Format: functional. The settings on record: NCI-H1581, 48 h.
The target in test [2] is T1, Epidermal growth factor receptor (Homo sapiens, UniProt P00533). The test can be described thus: Inhibition of N-terminal GST-tagged human EGFR (d746-750AA) expressed in baculovirus at 10 uM using FAM-labelled peptide as substrate pre-incubated for 10 mins followed by substrate addition by mobility shift assay relative to control.
The target in test [3] is T1, Epidermal growth factor receptor. As to the kind of experiment: Inhibition of N-terminal GST-tagged human EGFR cytoplasmic domain (669-1210 AA) expressed in baculovirus at 10 uM using FAM-labelled peptide as substrate pre-incubated for 10 mins followed by substrate addition by mobility shift assay relative to control.
The test system of test [4] is Epidermal growth factor receptor (Homo sapiens), P00533 [L858R]. As to the kind of experiment: Inhibition of recombinant human EGFR L858R mutant expressed in baculovirus at 10 uM using FAM-labelled peptide as substrate pre-incubated for 10 mins followed by substrate addition by mobility shift assay relative to control.
Sequence of Epidermal growth factor receptor (Homo sapiens), P00533 [L858R] (P00533 whole entry L858R): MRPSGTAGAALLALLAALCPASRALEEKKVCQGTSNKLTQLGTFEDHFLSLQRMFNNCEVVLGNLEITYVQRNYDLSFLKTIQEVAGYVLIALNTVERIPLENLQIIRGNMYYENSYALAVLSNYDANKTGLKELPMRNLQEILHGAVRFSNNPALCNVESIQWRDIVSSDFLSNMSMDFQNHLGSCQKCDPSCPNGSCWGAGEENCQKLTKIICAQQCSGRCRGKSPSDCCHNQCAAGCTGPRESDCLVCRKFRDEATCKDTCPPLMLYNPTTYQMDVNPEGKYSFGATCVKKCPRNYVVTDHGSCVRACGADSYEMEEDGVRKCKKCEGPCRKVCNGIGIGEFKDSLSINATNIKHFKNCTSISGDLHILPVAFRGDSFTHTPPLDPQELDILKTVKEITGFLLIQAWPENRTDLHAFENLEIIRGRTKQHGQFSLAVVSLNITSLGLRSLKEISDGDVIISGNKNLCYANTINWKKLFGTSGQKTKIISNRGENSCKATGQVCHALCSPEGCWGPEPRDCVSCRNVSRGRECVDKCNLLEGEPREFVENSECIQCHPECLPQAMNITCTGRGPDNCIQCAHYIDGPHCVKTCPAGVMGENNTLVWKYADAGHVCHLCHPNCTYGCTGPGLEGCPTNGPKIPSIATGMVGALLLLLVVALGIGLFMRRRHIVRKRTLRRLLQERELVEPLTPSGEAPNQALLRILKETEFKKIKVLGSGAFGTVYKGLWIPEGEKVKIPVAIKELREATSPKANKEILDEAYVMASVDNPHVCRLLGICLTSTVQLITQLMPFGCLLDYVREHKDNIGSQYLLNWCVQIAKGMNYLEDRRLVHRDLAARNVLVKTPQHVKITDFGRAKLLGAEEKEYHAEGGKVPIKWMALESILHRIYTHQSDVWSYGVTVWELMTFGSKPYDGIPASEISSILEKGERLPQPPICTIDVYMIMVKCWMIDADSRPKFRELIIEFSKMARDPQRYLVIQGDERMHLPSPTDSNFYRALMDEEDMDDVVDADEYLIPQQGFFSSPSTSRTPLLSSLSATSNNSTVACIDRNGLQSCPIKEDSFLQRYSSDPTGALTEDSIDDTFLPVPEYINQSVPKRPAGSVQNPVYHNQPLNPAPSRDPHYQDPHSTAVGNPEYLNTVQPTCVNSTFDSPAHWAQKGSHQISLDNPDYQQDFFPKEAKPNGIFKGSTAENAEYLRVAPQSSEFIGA

Sequence of Fibroblast growth factor receptor 1 (P11362 22-822 limits assumed): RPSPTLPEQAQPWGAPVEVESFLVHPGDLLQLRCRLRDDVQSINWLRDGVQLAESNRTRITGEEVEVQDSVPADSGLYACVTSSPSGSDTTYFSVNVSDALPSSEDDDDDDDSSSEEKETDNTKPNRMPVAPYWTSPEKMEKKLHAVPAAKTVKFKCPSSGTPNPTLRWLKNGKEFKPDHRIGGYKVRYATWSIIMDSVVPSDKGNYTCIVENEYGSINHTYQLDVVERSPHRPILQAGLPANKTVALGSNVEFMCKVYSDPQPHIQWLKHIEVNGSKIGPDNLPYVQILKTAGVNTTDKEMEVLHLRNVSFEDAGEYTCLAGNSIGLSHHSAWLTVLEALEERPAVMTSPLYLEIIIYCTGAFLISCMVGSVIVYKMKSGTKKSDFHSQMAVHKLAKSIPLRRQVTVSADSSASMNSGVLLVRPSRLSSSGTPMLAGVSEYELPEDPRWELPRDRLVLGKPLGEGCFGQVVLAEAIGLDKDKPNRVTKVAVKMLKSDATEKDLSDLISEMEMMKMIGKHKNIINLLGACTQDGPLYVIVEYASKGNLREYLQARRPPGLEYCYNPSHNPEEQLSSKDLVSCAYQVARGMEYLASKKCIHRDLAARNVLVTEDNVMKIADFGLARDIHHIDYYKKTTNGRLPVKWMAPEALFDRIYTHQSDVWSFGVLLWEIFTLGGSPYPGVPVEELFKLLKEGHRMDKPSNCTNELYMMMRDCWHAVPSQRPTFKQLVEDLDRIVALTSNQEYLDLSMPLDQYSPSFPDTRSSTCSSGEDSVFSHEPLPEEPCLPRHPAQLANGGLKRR
T1 sequence (P00533 whole entry, the tested form may be a part): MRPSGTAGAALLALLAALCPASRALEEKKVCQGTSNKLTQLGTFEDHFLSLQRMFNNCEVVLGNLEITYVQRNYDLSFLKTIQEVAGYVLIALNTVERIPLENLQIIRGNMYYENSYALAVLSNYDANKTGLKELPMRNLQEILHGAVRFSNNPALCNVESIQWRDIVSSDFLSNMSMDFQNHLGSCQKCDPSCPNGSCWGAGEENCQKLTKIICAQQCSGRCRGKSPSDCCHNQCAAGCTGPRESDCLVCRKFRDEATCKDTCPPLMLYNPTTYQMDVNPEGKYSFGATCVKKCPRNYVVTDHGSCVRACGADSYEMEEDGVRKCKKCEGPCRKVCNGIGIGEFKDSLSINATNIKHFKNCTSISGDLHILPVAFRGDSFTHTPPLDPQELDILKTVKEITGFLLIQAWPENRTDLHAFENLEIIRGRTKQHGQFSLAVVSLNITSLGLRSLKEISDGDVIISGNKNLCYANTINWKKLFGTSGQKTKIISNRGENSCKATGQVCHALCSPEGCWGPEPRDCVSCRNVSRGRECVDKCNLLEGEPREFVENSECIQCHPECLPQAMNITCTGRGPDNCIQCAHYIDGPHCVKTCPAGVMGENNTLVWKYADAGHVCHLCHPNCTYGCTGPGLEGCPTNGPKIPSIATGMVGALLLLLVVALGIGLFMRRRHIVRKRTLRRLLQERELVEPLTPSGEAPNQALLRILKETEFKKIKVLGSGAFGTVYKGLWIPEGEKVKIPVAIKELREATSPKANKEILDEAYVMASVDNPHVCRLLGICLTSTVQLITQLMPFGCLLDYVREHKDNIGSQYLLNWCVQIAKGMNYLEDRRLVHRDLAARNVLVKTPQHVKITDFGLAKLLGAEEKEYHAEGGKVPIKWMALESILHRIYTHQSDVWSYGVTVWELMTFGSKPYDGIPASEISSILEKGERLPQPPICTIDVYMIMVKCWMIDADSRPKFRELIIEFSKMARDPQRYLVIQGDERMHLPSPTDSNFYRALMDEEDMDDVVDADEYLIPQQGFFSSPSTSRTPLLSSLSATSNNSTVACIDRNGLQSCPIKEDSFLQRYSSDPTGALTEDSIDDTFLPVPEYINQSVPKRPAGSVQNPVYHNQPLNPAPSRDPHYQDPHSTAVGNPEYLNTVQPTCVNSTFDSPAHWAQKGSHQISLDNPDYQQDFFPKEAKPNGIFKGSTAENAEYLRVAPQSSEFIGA

In the case of `COc1cc(NC(=O)Nc2cc(Nc3ccc(F)c(Cl)c3)ncn2)cc(OC)c1`, the inhibition at 10 µM with HCC827 came to 53%; in the test on NCI-H520, 25.5%; in the test on NCI-H226 it was 36.7%; in the test on PC-9, 77.5%; in the test with NCI-H1581, 53%. The inhibition is 1% in test [1], 52.8% in test [2], 46.7% in test [3] and 69.1% in test [4].
Turning to `COc1cc(NC(=O)Nc2cc(Nc3ccc(C)c(C)c3)ncn2)cc(OC)c1`, the inhibition at 10 µM turned out to be 45.7% in the test on HCC827; 29.5% in the test on NCI-H520; 45.3% with NCI-H226; 66% in the test on PC-9; 20.1% in the test with NCI-H1581. Also, the inhibition in test [1] amounted to 21.3%; in test [2], 43.4%; in [3], 54.1%; in test [4], 39.5%.
On to `O=C(Nc1cccc(Nc2cc(Nc3cccc(C(F)(F)F)c3)ncn2)c1)C1CC1`, for which the inhibition at 10 µM was 94.7% in the test with HCC827; 30% in the test with NCI-H520; 52.7% in the test on NCI-H226; 90.5% in the test on PC-9; 26% in the test on NCI-H1581.
Turning to `COc1ccc(Br)cc1Nc1cc(NC(=O)Nc2c(Cl)cccc2Cl)ncn1`, the inhibition at 10 µM turned out to be 53% in the test with HCC827; 45% in the test on NCI-H520; 33% in the test on NCI-H226; 69% in the test with PC-9; 53.3% with NCI-H1581. The inhibition in test [1] amounted to 37.8%; in test [2], 93.5%; in test [3], 87.3%; in [4] it was 95.9%.
`COc1cc(NC(=O)Nc2cc(Nc3cc(C)cc(F)c3)ncn2)cc(OC)c1`: the inhibition at 10 µM in the test on HCC827 was 62%; with NCI-H520 it was 24.5%; in the test with NCI-H226, 35.3%; with PC-9 it was 64.5%; in the test with NCI-H1581 it was 28.3%. For the same molecule, the inhibition in test [1] amounted to 1.1%; in test [2] it was 16.7%; in [3], 8%; in [4] it was 23.1%.
On to `COc1ccc(C(F)(F)F)cc1Nc1cc(NC(=O)Nc2c(Cl)cccc2Cl)ncn1`, for which the inhibition at 10 µM came to 68.7% in the test with HCC827; 33% in the test with NCI-H520; 60.1% in the test on NCI-H226; 89% with PC-9; 69% in the test on NCI-H1581. Besides, the inhibition in test [1] stood at 55.4%; in test [2], 73%; in test [3], 77.5%; in test [4] it was 83.1%.
Take `CCc1ccc(Nc2cc(NC(=O)Nc3cc(OC)cc(OC)c3)ncn2)cc1`: the inhibition at 10 µM in the test with HCC827 amounted to 66.2%; in the test with NCI-H520, 23.5%; in the test on NCI-H226, 50.1%; in the test with PC-9, 78%; in the test on NCI-H1581 it was 32.7%. Besides, the inhibition in test [1] was found to be 6.1%; in [2], 28.1%; in [3] it was 25.4%; in test [4], 45.7%.
As for `COc1cc(NC(=O)Nc2cc(Nc3cc(F)ccc3OC)ncn2)cc(OC)c1`, the inhibition at 10 µM came to 59% in the test on HCC827; 38% in the test with NCI-H520; 37.7% in the test with NCI-H226; 59.5% in the test on PC-9; 42.1% in the test on NCI-H1581. The inhibition in [1] is -1.6%; in test [2] it was 35.4%; in test [3], 31.1%; in [4] it was 54.6%.
Regarding `COc1cc(NC(=O)Nc2cc(Nc3ccc(C)c(F)c3)ncn2)cc(OC)c1`, the inhibition at 10 µM came out at 72% in the test on HCC827; 30.6% with NCI-H520; 39.7% in the test with NCI-H226; 77.5% with PC-9; 38% in the test on NCI-H1581. The inhibition in test [1] came out at 0.1%; in test [2], 51.5%; in [3] it was 31.7%; in test [4], 64.2%.
With `COc1ccc(F)cc1Nc1cc(NC(=O)Nc2c(Cl)cccc2Cl)ncn1`, the inhibition at 10 µM with HCC827 was found to be 78%; in the test on NCI-H520 it was 38%; in the test on NCI-H226 it was 31.3%; in the test with PC-9, 85.5%; in the test with NCI-H1581 it was 73.1%. Besides, the inhibition in test [1] came out at 11.1%; in [2], 48.7%; in [3], 39.2%; in test [4], 63.3%.
For `COc1cc(NC(=O)Nc2cc(Nc3ccc(OC)c(I)c3)ncn2)cc(OC)c1`, the inhibition at 10 µM with HCC827 came to 61.7%; in the test on NCI-H520, 46.5%; in the test on NCI-H226 it was 40.1%; in the test with PC-9, 47%; with NCI-H1581 it was 43%. Also, the inhibition was found to be 10.3% in test [1], 43.6% in test [2], 31.4% in [3] and 46% in test [4].
As to `COc1cc(NC(=O)Nc2cc(Nc3ccc(Br)cc3OC)ncn2)cc(OC)c1`, the inhibition at 10 µM in the test on HCC827 stood at 57.7%; with NCI-H520, 36%; in the test on NCI-H226 it was 25.7%; with PC-9, 83%; in the test with NCI-H1581 it was 20.1%. The inhibition in [1] is -0.7%; in test [2] it was 17.9%; in test [3] it was 12.4%; in test [4], 36.9%.
For `COc1cc(Nc2cc(NC(=O)Nc3c(Cl)cccc3Cl)ncn2)cc(C(F)(F)F)c1`, the inhibition at 10 µM with HCC827 stood at 57.7%; with NCI-H520, 23.1%; in the test with NCI-H226 it was 33.1%; in the test with PC-9, 88.5%; in the test with NCI-H1581, 32.3%. The inhibition was 0.9% in test [1], 48.4% in [2], 40% in test [3] and 69.3% in test [4].
Turning to `CCc1cccc(Nc2cc(NC(=O)Nc3cc(OC)cc(OC)c3)ncn2)c1`, the inhibition at 10 µM with HCC827 came out at 52.6%; in the test on NCI-H520 it was 23%; with NCI-H226 it was 36.7%; in the test on PC-9 it was 82.1%; with NCI-H1581, 27.7%. Further, the inhibition in test [1] stood at 1.1%; in test [2], 26%; in test [3], 10.1%; in test [4], 41%.
For `COc1cc(NC(=O)Nc2cc(Nc3ccc(C(C)(C)C)cc3)ncn2)cc(OC)c1`, the inhibition at 10 µM in the test with HCC827 is 32.7%; in the test on NCI-H520, 17.5%; in the test on NCI-H226, 47.7%; in the test with PC-9 it was 74.1%; in the test on NCI-H1581, 38.7%. In addition, the inhibition in [1] was -0.7%; in test [2], -0.2%; in [3], -1.1%; in [4], 2.7%.
In the case of `CC(C)(C)c1ccc(Nc2cc(NC(=O)Nc3c(Cl)cccc3Cl)ncn2)cc1`, the inhibition at 10 µM with HCC827 is 42.3%; with NCI-H520, 22%; in the test on NCI-H226, 40%; with PC-9, 41.5%; in the test with NCI-H1581, 71.3%. Also, the inhibition in [1] came to 30.4%; in test [2] it was 63.2%; in [3], 48.2%; in [4], 71.8%.
In the case of `Cc1ccc(Nc2cc(NC(=O)Nc3c(Cl)cccc3Cl)ncn2)cc1F`, the inhibition at 10 µM with HCC827 was found to be 85.3%; with NCI-H520, 33.5%; in the test with NCI-H226, 40.7%; in the test with PC-9, 92%; in the test with NCI-H1581 it was 45.3%. Besides, the inhibition was 51% in test [1], 87.1% in test [2], 77.8% in test [3] and 67.2% in test [4].
Turning to `COc1cc(NC(=O)Nc2cc(Nc3cc(Br)ccc3OC)ncn2)cc(OC)c1`, the inhibition at 10 µM came out at 76.3% with HCC827; 43.5% in the test with NCI-H520; 42.7% in the test on NCI-H226; 82.5% with PC-9; 23.1% with NCI-H1581. In addition, the inhibition is -1.5% in test [1], 45.2% in test [2], 51.4% in [3] and 52.4% in [4].
As to `COc1cc(NC(=O)Nc2cc(Nc3cccc(C(C)(C)C)c3)ncn2)cc(OC)c1`, the inhibition at 10 µM was found to be 48.7% with HCC827; 13.1% with NCI-H520; 40% with NCI-H226; 68% with PC-9; 35% in the test with NCI-H1581. Further, the inhibition in test [1] stood at 5.2%; in [2], 10.4%; in test [3], 17.1%; in test [4], 29.3%.
For `COc1cc(NC(=O)Nc2cc(Nc3ccc(OC)c(C)c3)ncn2)cc(OC)c1`, the inhibition at 10 µM in the test with HCC827 turned out to be 48.3%; with NCI-H520 it was 13.5%; in the test on NCI-H226, 39.7%; in the test with PC-9 it was 62%; in the test on NCI-H1581, 19.7%. In addition, the inhibition in test [1] was 36.6%; in test [2], 54.9%; in test [3], 74.9%; in test [4], 46.5%.

The term inhibition denotes the change of the read-out against control, counted positive when it falls.
